In PubChem BioAssay AID1963432 (Molecular Pharmacology Branch, DTP, NCI, 2024):
Values joined by “and” are separate entries in the source; they are usually repeats but may differ in a detail not shown here. Equal values may be shown once.

Tested on: SYO-1 complex spheroid growth, percent test/control
Test: Anticancer human tumor SYO-1 cell line growth inhibition [Asc];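 further: compound exposure lasted 7 days after spheroids grew 3 days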;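 on viability, T/C: 100% = DMSO vehicle control viability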
Conditions: for viability, T/C: stronger effect = lower value
Procedure, shortened: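 Tumor cells were grown as complex spheroids with human endothelial cells (HUVEC) and human mesenchymal stem cells as stroma. Agents were tested alone and in combination, in half-log steps down from the clinical Cmax, or from 10 microM where Cmax was unknown.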

SMILES: C=C(F)C(=O)N1CCN(c2nc(OCC3CCCN3C)nc3c2CCN(c2cccc4cccc(Cl)c24)C3)CC1CC#N (stereo unspecified) + CCN1C(C(=O)NC23CCC(C(=O)O)(CC2)CC3)C(c2cccc(Cl)c2F)C2(C(=O)Nc3cc(Cl)ccc32)C12CCCCC2
- IC50 (curve of first compound, second compound 0.00949 µM): 5020 nM
- IC50 (curve of first compound, second compound 0.03 µM): 1860 nM
- IC50 (curve of first compound, second compound 0.0949 µM): 1620 nM
- IC50 (curve of first compound, second compound 0.3 µM): < 31.6 nM
- IC50 (curve of first compound, second compound 0.949 µM): < 31.6 nM
- IC50 (curve of first compound, second compound 3 µM): < 31.6 nM
- viability, T/C (second compound 0.00949 µM, first compound 0.0316 µM): 101%
- viability, T/C (second compound 0.00949 µM, first compound 0.1 µM): 99.9%
- viability, T/C (second compound 0.00949 µM, first compound 0.316 µM): 101%
- viability, T/C (second compound 0.00949 µM, first compound 1 µM): 109%
- viability, T/C (second compound 0.00949 µM, first compound 3.16 µM): 83.3%
- viability, T/C (second compound 0.00949 µM, first compound 10 µM): 0.4%
- viability, T/C (second compound 0.03 µM, first compound 0.0316 µM): 96.9%
- viability, T/C (second compound 0.03 µM, first compound 0.1 µM): 95.3%
- viability, T/C (second compound 0.03 µM, first compound 0.316 µM): 101%
- viability, T/C (second compound 0.03 µM, first compound 1 µM): 111%
- viability, T/C (second compound 0.03 µM, first compound 3.16 µM): 6.35%
- viability, T/C (second compound 0.03 µM, first compound 10 µM): 0.68%
- viability, T/C (second compound 0.0949 µM, first compound 0.0316 µM): 87.1%
- viability, T/C (second compound 0.0949 µM, first compound 0.1 µM): 81%
- viability, T/C (second compound 0.0949 µM, first compound 0.316 µM): 83.8%
- viability, T/C (second compound 0.0949 µM, first compound 1 µM): 88.2%
- viability, T/C (second compound 0.0949 µM, first compound 3.16 µM): 1.01%
- viability, T/C (second compound 0.0949 µM, first compound 10 µM): 0.26%
- viability, T/C (second compound 0.3 µM, first compound 0.0316 µM): 31.3%
- viability, T/C (second compound 0.3 µM, first compound 0.1 µM): 27.9%
- viability, T/C (second compound 0.3 µM, first compound 0.316 µM): 22.7%
- viability, T/C (second compound 0.3 µM, first compound 1 µM): 23.9%
- viability, T/C (second compound 0.3 µM, first compound 3.16 µM): 1.47%
- viability, T/C (second compound 0.3 µM, first compound 10 µM): 0.37%
- viability, T/C (second compound 0.949 µM, first compound 0.0316 µM): 4.04%
- viability, T/C (second compound 0.949 µM, first compound 0.1 µM): 3.25%
- viability, T/C (second compound 0.949 µM, first compound 0.316 µM): 2.38%
- viability, T/C (second compound 0.949 µM, first compound 1 µM): 1.49%
- viability, T/C (second compound 0.949 µM, first compound 3.16 µM): 0.82%
- viability, T/C (second compound 0.949 µM, first compound 10 µM): 0.26%
- viability, T/C (second compound 3 µM, first compound 0.0316 µM): 2.61%
- viability, T/C (second compound 3 µM, first compound 0.1 µM): 1.39%
- viability, T/C (second compound 3 µM, first compound 0.316 µM): 1.16%
- viability, T/C (second compound 3 µM, first compound 1 µM): 0.97%
- viability, T/C (second compound 3 µM, first compound 3.16 µM): 0.49%
- viability, T/C (second compound 3 µM, first compound 10 µM): 0.4%

SMILES: O=C(c1cc(Cc2n[nH]c(=O)c3ccccc23)ccc1F)N1CCN(C(=O)C2CC2)CC1
- viability, T/C (compound 0.0316 µM): 96.5% and 98.2% and 111%
- viability, T/C (compound 0.1 µM): 91.4% and 91.9% and 103%
- viability, T/C (compound 0.316 µM): 102% and 99.6% and 101%
- viability, T/C (compound 1 µM): 96.7% and 105% and 95.2%
- viability, T/C (compound 3.16 µM): 38% and 49.1% and 73.5%
- viability, T/C (compound 10 µM): 6.76% and 6.7% and 10.1%
- IC50 (curve of compound): 2500 nM and 3100 nM and 4810 nM

SMILES: CCN1CCN(Cc2ccc(Nc3ncc(F)c(-c4cc(F)c5nc(C)n(C(C)C)c5c4)n3)nc2)CC1 + Cc1c(S(C)(=O)=O)c(-c2cc(F)cc(N3CCN(c4ccc(NS(=O)(=O)c5ccc(NC(CCN6CCC(C(=O)OCCCP(=O)(O)O)CC6)CSc6ccccc6)c(S(=O)(=O)C(F)(F)F)c5)cc4)CC3)c2)c(-c2ccc(Cl)cc2)n1C(C)C
- IC50 (curve of first compound, second compound 0.0316 µM): > 1000 nM
- IC50 (curve of first compound, second compound 0.1 µM): > 1000 nM
- IC50 (curve of first compound, second compound 0.316 µM): > 1000 nM
- IC50 (curve of first compound, second compound 1 µM): > 1000 nM
- IC50 (curve of first compound, second compound 3.16 µM): > 1000 nM
- IC50 (curve of first compound, second compound 10 µM): > 1000 nM
- viability, T/C (second compound 0.0316 µM, first compound 0.00316 µM): 102%
- viability, T/C (second compound 0.0316 µM, first compound 0.01 µM): 99.2%
- viability, T/C (second compound 0.0316 µM, first compound 0.0316 µM): 109%
- viability, T/C (second compound 0.0316 µM, first compound 0.1 µM): 111%
- viability, T/C (second compound 0.0316 µM, first compound 0.316 µM): 121%
- viability, T/C (second compound 0.0316 µM, first compound 1 µM): 106%
- viability, T/C (second compound 0.1 µM, first compound 0.00316 µM): 99.8%
- viability, T/C (second compound 0.1 µM, first compound 0.01 µM): 101%
- viability, T/C (second compound 0.1 µM, first compound 0.0316 µM): 97.8%
- viability, T/C (second compound 0.1 µM, first compound 0.1 µM): 113%
- viability, T/C (second compound 0.1 µM, first compound 0.316 µM): 116%
- viability, T/C (second compound 0.1 µM, first compound 1 µM): 109%
- viability, T/C (second compound 0.316 µM, first compound 0.00316 µM): 103%
- viability, T/C (second compound 0.316 µM, first compound 0.01 µM): 99.1%
- viability, T/C (second compound 0.316 µM, first compound 0.0316 µM): 108%
- viability, T/C (second compound 0.316 µM, first compound 0.1 µM): 108%
- viability, T/C (second compound 0.316 µM, first compound 0.316 µM): 114%
- viability, T/C (second compound 0.316 µM, first compound 1 µM): 99.4%
- viability, T/C (second compound 1 µM, first compound 0.00316 µM): 99.7%
- viability, T/C (second compound 1 µM, first compound 0.01 µM): 105%
- viability, T/C (second compound 1 µM, first compound 0.0316 µM): 103%
- viability, T/C (second compound 1 µM, first compound 0.1 µM): 106%
- viability, T/C (second compound 1 µM, first compound 0.316 µM): 115%
- viability, T/C (second compound 1 µM, first compound 1 µM): 95.1%
- viability, T/C (second compound 3.16 µM, first compound 0.00316 µM): 92.7%
- viability, T/C (second compound 3.16 µM, first compound 0.01 µM): 93.7%
- viability, T/C (second compound 3.16 µM, first compound 0.0316 µM): 110%
- viability, T/C (second compound 3.16 µM, first compound 0.1 µM): 107%
- viability, T/C (second compound 3.16 µM, first compound 0.316 µM): 110%
- viability, T/C (second compound 3.16 µM, first compound 1 µM): 92.2%
- viability, T/C (second compound 10 µM, first compound 0.00316 µM): 87.5%
- viability, T/C (second compound 10 µM, first compound 0.01 µM): 82.5%
- viability, T/C (second compound 10 µM, first compound 0.0316 µM): 80%
- viability, T/C (second compound 10 µM, first compound 0.1 µM): 94.2%
- viability, T/C (second compound 10 µM, first compound 0.316 µM): 101%
- viability, T/C (second compound 10 µM, first compound 1 µM): 86.6%
